Molecular target: T1, fMet-Leu-Phe receptor (Homo sapiens, UniProt P21462)
T1 sequence (P21462 whole entry): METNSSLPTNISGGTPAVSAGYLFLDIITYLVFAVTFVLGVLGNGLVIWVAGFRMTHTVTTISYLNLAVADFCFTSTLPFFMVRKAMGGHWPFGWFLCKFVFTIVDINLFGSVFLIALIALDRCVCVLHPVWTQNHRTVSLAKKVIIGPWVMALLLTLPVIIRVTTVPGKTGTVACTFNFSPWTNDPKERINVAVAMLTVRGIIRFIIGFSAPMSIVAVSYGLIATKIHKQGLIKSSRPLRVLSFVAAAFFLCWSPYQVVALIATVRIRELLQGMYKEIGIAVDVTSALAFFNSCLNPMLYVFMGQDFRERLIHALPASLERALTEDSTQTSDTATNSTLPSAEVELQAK
Test: FPR ligands, dose response (AID 519)

SMILES | Ki [µM]
COc1cc(C2C(C(=O)c3ccco3)C(=O)C(=O)N2CCc2ccccc2)ccc1O (stereo not drawn) [3-(furan-2-carbonyl)-4-hydroxy-2-(4-hydroxy-3-methoxyphenyl)-1-(2-phenylethyl)-2H-pyrrol-5-one] | > 43.7
COc1ccccc1C1C(C(=O)c2ccccc2)C(=O)C(=O)N1CCO (stereo not drawn) [(4Z)-1-(2-hydroxyethyl)-4-[hydroxy(phenyl)methylene]-5-(2-methoxyphenyl)pyrrolidine-2,3-quinone] | 12.9
CCOc1cc(C2C(C(=O)c3ccc(C)o3)C(=O)C(=O)N2CCc2ccccc2)ccc1O (stereo not drawn) [2-(3-ethoxy-4-hydroxyphenyl)-4-hydroxy-3-(5-methylfuran-2-carbonyl)-1-(2-phenylethyl)-2H-pyrrol-5-one] | 19.9
COc1cc(C2C(C(=O)c3cccs3)C(=O)C(=O)N2Cc2ccco2)cc(OC)c1OC (stereo not drawn) [1-(2-furanylmethyl)-4-hydroxy-3-[oxo(thiophen-2-yl)methyl]-2-(3,4,5-trimethoxyphenyl)-2H-pyrrol-5-one] | 17.7
COc1ccc(C2C(C(=O)c3ccco3)C(=O)C(=O)N2CCc2ccccc2)cc1OC (stereo not drawn) [2-(3,4-dimethoxyphenyl)-3-(furan-2-carbonyl)-4-hydroxy-1-(2-phenylethyl)-2H-pyrrol-5-one] | 24.1
O=C1C(=O)N(c2ncccn2)C(c2cccc(Cl)c2)C1C(=O)c1ccco1 (stereo not drawn) [2-(3-chlorophenyl)-3-(furan-2-carbonyl)-4-hydroxy-1-pyrimidin-2-yl-2H-pyrrol-5-one] | > 43.7
Cc1ccc(C2C(C(=O)c3sc(C)nc3C)C(=O)C(=O)N2CCN2CCOCC2)o1 (stereo not drawn) [3-(2,4-dimethyl-1,3-thiazole-5-carbonyl)-4-hydroxy-2-(5-methylfuran-2-yl)-1-(2-morpholin-4-ylethyl)-2H-pyrrol-5-one] | > 43.7
Cc1ccc(C2C(C(=O)c3ccc(Br)cc3)C(=O)C(=O)N2Cc2ccco2)o1 (stereo not drawn) [(4Z)-4-[(4-bromophenyl)-hydroxy-methylene]-1-(2-furfuryl)-5-(5-methyl-2-furyl)pyrrolidine-2,3-quinone] | > 43.7
COc1ccccc1C1C(C(=O)c2ccccc2)C(=O)C(=O)N1CC(C)O (stereo not drawn) [(4Z)-4-[hydroxy(phenyl)methylene]-1-(2-hydroxypropyl)-5-(2-methoxyphenyl)pyrrolidine-2,3-quinone] | 16.1
Cc1ccc(C2C(C(=O)c3cnn(-c4ccccc4)c3C)C(=O)C(=O)N2CCN2CCOCC2)o1 (stereo not drawn) [(4Z)-4-[hydroxy-(5-methyl-1-phenyl-4-pyrazolyl)methylidene]-5-(5-methyl-2-furanyl)-1-[2-(4-morpholinyl)ethyl]pyrrolidine-2,3-dione] | 15.2
O=C1C(=O)N(CCCN2CCOCC2)C(c2ccccn2)C1C(=O)c1cc2ccccc2o1 (stereo not drawn) [3-(1-benzofuran-2-carbonyl)-4-hydroxy-1-(3-morpholin-4-ylpropyl)-2-pyridin-2-yl-2H-pyrrol-5-one] | 39.7
COc1cccc(C2C(C(=O)c3ccc(OC)c(OC)c3)C(=O)C(=O)N2c2cc(C)on2)c1 (stereo not drawn) [(4E)-4-[(3,4-dimethoxyphenyl)-hydroxy-methylene]-5-(3-methoxyphenyl)-1-(5-methylisoxazol-3-yl)pyrrolidine-2,3-quinone] | > 43.7
COc1ccccc1C1C(C(=O)c2ccccc2)C(=O)C(=O)N1CC(C)C (stereo not drawn) [(4Z)-4-[hydroxy(phenyl)methylene]-1-isobutyl-5-(2-methoxyphenyl)pyrrolidine-2,3-quinone] | 3.6
Cc1ccc(C2C(C(=O)c3ccc(Cl)cc3)C(=O)C(=O)N2CC2CCCO2)o1 (stereo not drawn) [(4Z)-4-[(4-chlorophenyl)-hydroxy-methylene]-5-(5-methyl-2-furyl)-1-(tetrahydrofurfuryl)pyrrolidine-2,3-quinone] | 7.6
COC(=O)c1[nH]c(C)c(C(=O)C2C(=O)C(=O)N(CCN3CCOCC3)C2c2cccnc2)c1C (stereo not drawn) [4-[(E)-hydroxy-[1-[2-(4-morpholinyl)ethyl]-4,5-dioxo-2-(3-pyridinyl)-3-pyrrolidinylidene]methyl]-3,5-dimethyl-1H-pyrrole-2-carboxylic acid methyl ester] | 13.6
COCCCN1C(=O)C(=O)C(C(=O)c2ccc(OC)cc2C)C1c1cccnc1 (stereo not drawn) [(4E)-4-[(4-methoxy-2-methyl-phenyl)-oxidanyl-methylidene]-1-(3-methoxypropyl)-5-pyridin-3-yl-pyrrolidine-2,3-dione] | > 43.7
Cc1ccc(C2c3c([nH]c(=S)[nH]c3=O)N=C3CC(C)(C)CC(=O)C32)cc1 (stereo not drawn) [8,8-dimethyl-5-(4-methylphenyl)-2-sulfanylidene-5,7,9,10-tetrahydro-1H-pyrimido[4,5-b]quinoline-4,6-dione] | 31.4
COc1ccc(OC)c(C2C(C(=O)c3ccco3)C(=O)C(=O)N2CCCN2CCOCC2)c1 (stereo not drawn) [2-(2,5-dimethoxyphenyl)-3-(furan-2-carbonyl)-4-hydroxy-1-(3-morpholin-4-ylpropyl)-2H-pyrrol-5-one] | 17.3
COCCCN1C(=O)C(=O)C(C(=O)c2ccco2)C1c1ccccc1 (stereo not drawn) [3-(furan-2-carbonyl)-4-hydroxy-1-(3-methoxypropyl)-2-phenyl-2H-pyrrol-5-one] | 9.5

SMILES | Ki [µM]
Cc1ccc(C(=O)C2C(=O)C(=O)N(CCN3CCOCC3)C2c2cccnc2)cc1 (stereo not drawn) [(4Z)-4-[(4-methylphenyl)-oxidanyl-methylidene]-1-(2-morpholin-4-ylethyl)-5-pyridin-3-yl-pyrrolidine-2,3-dione] | > 43.7
CCOc1cccc(C(=O)C2C(=O)C(=O)N(Cc3ccco3)C2c2ccncc2)c1 (stereo not drawn) [(4Z)-1-(2-furfuryl)-4-[hydroxy(m-phenetyl)methylene]-5-(4-pyridyl)pyrrolidine-2,3-quinone] | > 43.7
Cc1nc(C)c(C(=O)C2C(=O)C(=O)N(CCCn3ccnc3)C2c2ccc(Cl)cc2)s1 (stereo not drawn) [2-(4-chlorophenyl)-3-(2,4-dimethyl-1,3-thiazole-5-carbonyl)-4-hydroxy-1-(3-imidazol-1-ylpropyl)-2H-pyrrol-5-one] | > 43.7
Cc1ccc(C(=O)C2C(=O)C(=O)N(c3cc(C)on3)C2c2cccc(Br)c2)cc1 (stereo not drawn) [(4E)-5-(3-bromophenyl)-1-(5-methyl-1,2-oxazol-3-yl)-4-[(4-methylphenyl)-oxidanyl-methylidene]pyrrolidine-2,3-dione] | > 43.7
COc1cc(-n2nc(C)c3c2OC(=N)C(C#N)C3c2ccccc2)c(Cl)c(Br)c1O (stereo not drawn) [6-amino-1-(3-bromo-2-chloro-4-hydroxy-5-methoxyphenyl)-3-methyl-4-phenyl-1,4-dihydropyrano[2,3-c]pyrazole-5-carbonitrile] | 21.3
O=C1C(=O)N(c2ncccn2)C(c2ccc(Cl)cc2)C1C(=O)c1ccco1 (stereo not drawn) [2-(4-chlorophenyl)-3-(furan-2-carbonyl)-4-hydroxy-1-pyrimidin-2-yl-2H-pyrrol-5-one] | > 43.7
CSCCC1c2c(-c3cccs3)n[nH]c2OC(=N)C1C#N (stereo not drawn) [6-azanyl-4-(2-methylsulfanylethyl)-3-thiophen-2-yl-2,4-dihydropyrano[2,3-c]pyrazole-5-carbonitrile] | > 43.7
COc1cc(C2C(C(=O)c3ccco3)C(=O)C(=O)N2c2cc(C)on2)cc(Br)c1O (stereo not drawn) [2-(3-bromanyl-5-methoxy-4-oxidanyl-phenyl)-3-(furan-2-ylcarbonyl)-1-(5-methyl-1,2-oxazol-3-yl)-4-oxidanyl-2H-pyrrol-5-one] | 31.2
Cc1ccc(C(=O)C2C(=O)C(=O)N(CCCn3ccnc3)C2c2ccc(OC(C)C)cc2)o1 (stereo not drawn) [1-(3-imidazol-1-ylpropyl)-3-(5-methylfuran-2-yl)carbonyl-4-oxidanyl-2-(4-propan-2-yloxyphenyl)-2H-pyrrol-5-one] | > 43.7
COc1cc(C2C(C(=O)c3ccc(C)o3)C(=O)C(=O)N2Cc2cccnc2)ccc1O (stereo not drawn) [2-(3-methoxy-4-oxidanyl-phenyl)-3-(5-methylfuran-2-yl)carbonyl-4-oxidanyl-1-(pyridin-3-ylmethyl)-2H-pyrrol-5-one] | > 43.7
O=C1C(=O)N(CC2CCCO2)C(c2cccnc2)C1C(=O)c1ccco1 (stereo not drawn) [3-(furan-2-carbonyl)-4-hydroxy-1-(oxolan-2-ylmethyl)-2-pyridin-3-yl-2H-pyrrol-5-one] | 35.9
Cc1ccc(C(=O)C2C(=O)C(=O)N(CC(C)O)C2c2ccc(N(C)C)cc2)cc1 (stereo not drawn) [(4E)-5-[4-(dimethylamino)phenyl]-1-(2-hydroxypropyl)-4-[hydroxy(p-tolyl)methylene]pyrrolidine-2,3-quinone] | > 43.7
CCOc1ccc(C(=O)C2C(=O)C(=O)N(CC3CCCO3)C2c2ccco2)cc1 (stereo not drawn) [(4Z)-4-[(4-ethoxyphenyl)-hydroxymethylidene]-5-(2-furanyl)-1-(2-oxolanylmethyl)pyrrolidine-2,3-dione] | 21
CCN(CC)c1ccc(C=NC(C#N)C(=N)C#N)cc1 (stereo not drawn) [SMR000023871] | > 43.7
O=C1C(=O)N(Cc2ccccc2)C(c2ccco2)C1C(=O)c1ccco1 (stereo not drawn) [1-Benzyl-4-(furan-2-carbonyl)-5-furan-2-yl-3-hydroxy-1,5-dihydro-pyrrol-2-one] | 8.1
O=C1C(=O)N(CCOCCO)C(c2cccs2)C1C(=O)c1cccs1 (stereo not drawn) [1-[2-(2-hydroxyethyloxy)ethyl]-4-oxidanyl-2-thiophen-2-yl-3-thiophen-2-ylcarbonyl-2H-pyrrol-5-one] | 14
COc1ccc(C2C(C(=O)c3ccco3)C(=O)C(=O)N2Cc2cccnc2)cc1OC (stereo not drawn) [2-(3,4-dimethoxyphenyl)-3-(furan-2-carbonyl)-4-hydroxy-1-(pyridin-3-ylmethyl)-2H-pyrrol-5-one] | > 43.7
Cc1ccsc1C1C2C(=O)CC(C)(C)CC2=Nc2ncnn21 (stereo not drawn) [6,6-dimethyl-9-(3-methyl-2-thienyl)-1,5,7,9-tetrahydro-[1,2,4]triazolo[5,1-b]quinazolin-8-one] | 8.2
COCc1cc(C2C(C(=O)c3ccco3)C(=O)C(=O)N2CCOCCO)ccc1O (stereo not drawn) [3-(furan-2-carbonyl)-4-hydroxy-1-[2-(2-hydroxyethoxy)ethyl]-2-[4-hydroxy-3-(methoxymethyl)phenyl]-2H-pyrrol-5-one] | 19.4
